According to patent US20250115597A1, “TYK2 INHIBITORS AND COMPOSITIONS AND METHODS THEREOF” (LYNK PHARMACEUTICALS CO. LTD., priority 2021, published 2025):
Converted amounts (≈) assume the structure as drawn. Where two headings read alike, the source gives them in different places.

Columns and labels:
[1] = Microsomal metabolic stability assay; type: in vitro ADME; conditions: pH 7.4, 0.5 mg/mL protein, 1 μM compound
Summary of the method: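 Test article at 1 μM with 0.5 mg/mL microsomal protein and 2 mM NADPH, in 100 mM potassium phosphate pH 7.4 with 1.0 mM EDTA at 37 °C. Sampled at 0–45 min and quantified by LC/MS/MS. T1/2 from the slope of ln % remaining vs time.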

pSTAT1 = assay: Phosphorylation inhibition of STAT in human whole blood, IFN-alpha stimulated (flow cytometry); type: cell-based; conditions: 20 min; human whole blood, IFN-alpha 20 mins, CD3 cells; read-out: IC50 on pSTAT1 inhibition in h WB
Summary of the method: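 Freshly prepared PBMC or freshly collected whole blood stimulated with human Universal Type I IFN-alpha for 20 min, then fixed, permeabilized on ice and stained for CD3 and pSTAT1 (Y701). pSTAT1 read by flow cytometry; IC50 from 4-parameter logistic fit.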

Kinetic solubility = type: physicochemical; conditions: phosphate buffer, aqueous buffer, kinetic from dmso stock, PBS (pH 7.4), 1% DMSO, room temperature
Method: Aliquots of 8 μL of reference and test compound stock solutions (10 mM/5 mM) are added into 792 μL of 100 mM pH 7.4 phosphate buffer. The final DMSO concentration is 1%. Sample tubes are shaken for 2 hours at 1000 rpm at room temperature. Samples are centrifuged at 12000 rpm for 10 min to precipitate un-dissolved particles. And transfer the supernatants to a new tube or plate. Add 5 μL of samples (no diluted, 10 times diluted and 100 times diluted) and standard curve samples to 95 μL of ACN containing IS for LC-MS/MS analysis.

TYK2-JH2 domain = biological target: T1, TYK2-JH2 domain (Homo sapiens, UniProt P29597); assay: Binding activity test for JH2 domain of TYK2 (Tb-antibody/tracer FRET); conditions: for JAK1/TYK2 selectivity: ratio JAK1-JH2 IC50 / TYK2-JH2 IC50
T1 construct: IC50 on JH2 domain activity (nM)
Summary of the method: (§1)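 Compounds tested as 11-point 3-fold serial dilutions against the JH2 domain in a Tb-antibody/tracer FRET binding format. Plates incubated 60 min at 25° C, then overnight at 4° C, before FRET reading.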

[2] = Plasma protein binding by equilibrium dialysis; type: in vitro ADME; conditions: human plasma, equilibrium dialysis 5 hours at 37° C.; read-out: % Bound (human) (converted)
Summary of the method: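 Compound spiked into plasma at 0.2 and 2 μM was dialyzed against PBS for 5 h at 37° C with shaking, in duplicate. Plasma and buffer chambers were matrix-matched, protein-precipitated and analysed by LC-MS/MS to derive % unbound, % bound and % recovery.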

JAK1-JH2 domain = biological target: T2, JAK1-JH2 domain (Homo sapiens, UniProt P23458); assay: Binding activity test for JH2 domain of JAK1 (Tb-antibody/tracer FRET)
T2 construct: IC50 on JH2 domain activity (nM)
Summary of the method: as §1

[3] = biological target: T3, Ba/F3-FL-TYK2-P760L cells (Homo sapiens, UniProt P29597, P760L, cells depend on it); assay: Anti-proliferative assay, Ba/F3-FL-TYK2-P760L cells (Cell-Titer Glo); type: cell-based; conditions: 72 h, read-out: BaF3-FL-T2P760L IC50
T3 construct: BaF3-FL-T2P760L (nM)
Summary of the method: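 Ba/F3 cells made IL-3-independent by TEL-fused or full-length mutant JAK-family kinases, seeded at 2000/well and dosed after 24 h with 9 three-fold dilutions topping at 20 μM. Viability after 72 h at 37 °C, 5% CO2 by Cell-Titer Glo ATP luminescence.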

Ba/F3-TEL-JAK2 cells = biological target: T4, Ba/F3-TEL-JAK2 cells (Homo sapiens, UniProt O60674); assay: Anti-proliferative assay, Ba/F3-TEL-JAK2 cells (Cell-Titer Glo); type: cell-based; conditions: 72 h, read-out: BaF3-TEL-JAK2 IC50
T4 construct: fused on or other part: Dimerization domain of TEL (ETV6) fused to the JAK2 kinase domain; P41212 (Transcription factor ETV6)
Method: (§2) Anti-Proliferative Assay Dimerization domain of Tel protein fused with JAK kinase domain was permanently transduced into Ba/F3 cells, whose proliferation is dependent on JAK activity in the absence of IL-3 induction. These engineered Ba/F3 cells (Ba/F3-FL-TYK2-[…], Ba/F3-TEL-TYK2 and Ba/F3-TEL-JAK2) were used to monitor JAK inhibitory activities of the compounds in the cellular. […] Cells were seeded at 2000/well of white flat bottom 96-well plates. The well containing medium only was used as background control. After 24 h growth, cells were treated with compounds. The test compounds were dissolved in DMSO to a stock concentration of 20 mM. 3-fold serially diluted compounds for 9 concentrations with top concentration of 20 μM was added into the each well. […] The cells continued to grow at 37° C. in 5% CO2 for 72 h after compound treatment. The viability was measured by cellular ATP determination using the Cell-Titer Glo luciferase reagent (Promega). The Luminescence value was recorded by a multi-label reader Envision (PerkinElmer).

Ba/F3-TEL-TYK2 cells = biological target: T5, Ba/F3-TEL-TYK2 cells (Homo sapiens, UniProt P29597); assay: Anti-proliferative assay, Ba/F3-TEL-TYK2 cells (Cell-Titer Glo); type: cell-based; conditions: 72 h, read-out: BaF3-TEL-TYK2 IC50
T5 construct: fused on or other part: Dimerization domain of TEL (ETV6) fused to the TYK2 kinase domain; P41212 (Transcription factor ETV6)
Method: as §2

JAK1 = biological target: T6, JAK1 (Homo sapiens, UniProt P23458); assay: JAK1 kinase activity, microfluidic assay (Caliper EZ Reader II); type: biochemical; conditions: JAK1 5 nM, 1 mM ATP
T6 construct: purchased Carna Biosciences
Method: (§3) Testing for JAK1, JAK2 and TYK2 Kinase Activities
(§4) JAK activity was determined in the reaction buffer 50 mM HEPES, 0.01% Brij35, 10 mM MgCl2, 2 mM DTT by a microfluidic assay. The phosphorylation of a FAM labeled peptide substrate was monitored in the Caliper EZ Reader II (Perkin Elmer). The assay condition for each batch of enzyme (Carna Biosciences) was optimized to obtain 10% conversion rate of peptide substrate.
(§5) The test compounds were dissolved in DMSO to a stock concentration of 10 mM. Three-fold serially diluted compounds with top concentration of 5 μM were pre-incubated with JAK1, JAK2 or TYK2 for 10 min at ambient temperature. The final DMSO concentration of assay mixture was 1%. […] The reaction was stopped by adding 50 mM EDTA.
(§6) The percent inhibition was calculated by the following formula:
(§7) [formula] • wherein • Conversion %_max=the conversion rate in the positive well without addition of compound • Conversion %_sample=the conversion rate of test compounds • Conversion %_min=the conversion rate in the well without addition of enzyme
(§8) The dose-response (percent inhibition) curve was plotted and IC50 values were determined by GraphPad software.

JAK2 = biological target: T7, JAK2 (Homo sapiens, UniProt O60674); assay: JAK2 kinase activity, microfluidic assay (Caliper EZ Reader II); type: biochemical; conditions: JAK2 0.125 nM, 1 mM ATP
T7 construct: purchased Carna Biosciences
Method: as §3, §4, §5, §6, §7, §8

TYK2 = biological target: T8, TYK2 (Homo sapiens, UniProt P29597); assay: TYK2 kinase activity, microfluidic assay (Caliper EZ Reader II); type: biochemical; conditions: TYK2 1 nM, 1 mM ATP
T8 construct: purchased Carna Biosciences
Method: as §3, §4, §5, §6, §7, §8

[4] = dog liver microsomes, read-out: Dog LM Clint
[5] = dog liver microsomes, read-out: Dog LM T½
[6] = human liver microsomes, read-out: Human LM Clint
[7] = human liver microsomes, read-out: Human LM T½
[8] = rat liver microsomes, read-out: Rat LM Clint
[9] = rat liver microsomes, read-out: Rat LM T½

T5 sequence (P29597 whole entry, change not shown, the tested form may be a part): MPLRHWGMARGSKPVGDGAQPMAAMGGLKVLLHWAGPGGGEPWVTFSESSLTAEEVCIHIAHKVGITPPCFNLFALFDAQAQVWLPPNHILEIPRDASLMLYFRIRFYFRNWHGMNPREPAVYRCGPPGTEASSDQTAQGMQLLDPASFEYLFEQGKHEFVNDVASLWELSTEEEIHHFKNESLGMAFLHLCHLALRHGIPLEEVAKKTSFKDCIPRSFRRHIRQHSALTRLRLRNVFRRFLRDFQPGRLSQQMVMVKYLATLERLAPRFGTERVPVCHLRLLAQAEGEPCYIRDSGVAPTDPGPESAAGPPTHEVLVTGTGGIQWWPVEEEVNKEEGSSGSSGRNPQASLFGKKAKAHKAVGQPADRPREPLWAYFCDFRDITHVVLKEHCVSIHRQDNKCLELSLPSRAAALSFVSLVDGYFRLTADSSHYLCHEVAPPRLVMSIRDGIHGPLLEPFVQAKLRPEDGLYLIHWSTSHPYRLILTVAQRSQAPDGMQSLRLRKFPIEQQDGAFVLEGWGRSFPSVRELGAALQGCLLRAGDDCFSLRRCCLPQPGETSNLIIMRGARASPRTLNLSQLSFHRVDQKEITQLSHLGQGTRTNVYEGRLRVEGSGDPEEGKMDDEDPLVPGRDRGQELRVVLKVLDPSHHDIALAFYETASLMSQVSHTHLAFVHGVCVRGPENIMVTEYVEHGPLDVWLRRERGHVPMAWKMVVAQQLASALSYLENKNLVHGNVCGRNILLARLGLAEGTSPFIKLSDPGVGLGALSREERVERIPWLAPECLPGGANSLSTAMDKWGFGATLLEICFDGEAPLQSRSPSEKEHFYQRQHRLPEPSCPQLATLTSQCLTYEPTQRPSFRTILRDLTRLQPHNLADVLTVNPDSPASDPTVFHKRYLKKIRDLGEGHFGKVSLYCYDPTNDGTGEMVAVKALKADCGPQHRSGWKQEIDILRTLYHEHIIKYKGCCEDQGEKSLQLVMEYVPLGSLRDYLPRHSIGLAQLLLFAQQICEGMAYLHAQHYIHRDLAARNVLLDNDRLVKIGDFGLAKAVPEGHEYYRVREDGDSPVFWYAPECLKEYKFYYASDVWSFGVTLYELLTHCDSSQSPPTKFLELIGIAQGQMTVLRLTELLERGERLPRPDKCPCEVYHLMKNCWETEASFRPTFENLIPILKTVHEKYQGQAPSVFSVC
T1 sequence (P29597 589-875 limits assumed): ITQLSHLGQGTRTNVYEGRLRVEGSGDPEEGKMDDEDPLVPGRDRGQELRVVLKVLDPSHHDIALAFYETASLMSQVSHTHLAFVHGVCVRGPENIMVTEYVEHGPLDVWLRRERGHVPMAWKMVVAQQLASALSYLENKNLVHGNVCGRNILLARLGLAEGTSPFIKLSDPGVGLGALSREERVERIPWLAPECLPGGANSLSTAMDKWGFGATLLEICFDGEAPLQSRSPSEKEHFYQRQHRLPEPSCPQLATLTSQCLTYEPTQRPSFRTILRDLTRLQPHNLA
T2 sequence (P23458 583-855 limits assumed): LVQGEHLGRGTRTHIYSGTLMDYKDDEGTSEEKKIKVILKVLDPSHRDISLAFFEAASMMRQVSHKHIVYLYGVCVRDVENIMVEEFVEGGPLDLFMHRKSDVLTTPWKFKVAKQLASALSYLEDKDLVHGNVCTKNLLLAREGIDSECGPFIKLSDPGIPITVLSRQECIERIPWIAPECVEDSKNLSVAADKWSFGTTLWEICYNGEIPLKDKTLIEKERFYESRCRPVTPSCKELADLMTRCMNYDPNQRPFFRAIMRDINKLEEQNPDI
T3 sequence (P29597 whole entry P760L): as the sequence (P29597 whole entry, change not shown, the tested form may be a part) above, with P760L counted along it
T4 sequence (O60674 whole entry, change not shown, the tested form may be a part): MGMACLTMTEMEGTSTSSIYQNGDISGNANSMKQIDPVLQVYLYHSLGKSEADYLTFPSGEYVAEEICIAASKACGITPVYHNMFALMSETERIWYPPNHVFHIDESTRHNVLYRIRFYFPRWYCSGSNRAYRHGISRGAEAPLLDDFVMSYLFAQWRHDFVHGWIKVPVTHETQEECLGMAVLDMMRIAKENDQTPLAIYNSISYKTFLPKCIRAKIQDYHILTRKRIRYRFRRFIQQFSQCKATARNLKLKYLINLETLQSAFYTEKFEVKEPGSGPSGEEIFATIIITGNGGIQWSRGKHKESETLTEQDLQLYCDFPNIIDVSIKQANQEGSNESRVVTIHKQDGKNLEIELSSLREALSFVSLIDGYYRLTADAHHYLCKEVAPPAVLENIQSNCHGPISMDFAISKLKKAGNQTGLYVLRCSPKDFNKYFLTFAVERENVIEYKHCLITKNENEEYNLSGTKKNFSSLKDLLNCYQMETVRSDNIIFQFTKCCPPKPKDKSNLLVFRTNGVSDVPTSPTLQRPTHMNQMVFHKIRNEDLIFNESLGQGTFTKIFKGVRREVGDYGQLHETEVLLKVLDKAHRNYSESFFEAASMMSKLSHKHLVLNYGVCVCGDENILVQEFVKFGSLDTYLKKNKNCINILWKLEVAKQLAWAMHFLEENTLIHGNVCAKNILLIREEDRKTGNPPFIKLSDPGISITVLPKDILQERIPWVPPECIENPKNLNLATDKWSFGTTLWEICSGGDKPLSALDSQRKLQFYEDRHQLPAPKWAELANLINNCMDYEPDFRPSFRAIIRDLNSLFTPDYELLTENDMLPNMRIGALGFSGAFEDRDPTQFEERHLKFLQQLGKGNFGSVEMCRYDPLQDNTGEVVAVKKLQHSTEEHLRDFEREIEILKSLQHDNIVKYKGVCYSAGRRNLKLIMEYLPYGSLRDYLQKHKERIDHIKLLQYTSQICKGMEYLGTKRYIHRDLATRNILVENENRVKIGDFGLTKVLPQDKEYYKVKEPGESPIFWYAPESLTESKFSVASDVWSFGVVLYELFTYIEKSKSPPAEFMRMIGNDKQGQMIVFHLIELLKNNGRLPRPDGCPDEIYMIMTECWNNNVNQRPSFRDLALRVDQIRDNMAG
T8 sequence (P29597 whole entry): as the sequence (P29597 whole entry, change not shown, the tested form may be a part) above
T6 sequence (P23458 whole entry): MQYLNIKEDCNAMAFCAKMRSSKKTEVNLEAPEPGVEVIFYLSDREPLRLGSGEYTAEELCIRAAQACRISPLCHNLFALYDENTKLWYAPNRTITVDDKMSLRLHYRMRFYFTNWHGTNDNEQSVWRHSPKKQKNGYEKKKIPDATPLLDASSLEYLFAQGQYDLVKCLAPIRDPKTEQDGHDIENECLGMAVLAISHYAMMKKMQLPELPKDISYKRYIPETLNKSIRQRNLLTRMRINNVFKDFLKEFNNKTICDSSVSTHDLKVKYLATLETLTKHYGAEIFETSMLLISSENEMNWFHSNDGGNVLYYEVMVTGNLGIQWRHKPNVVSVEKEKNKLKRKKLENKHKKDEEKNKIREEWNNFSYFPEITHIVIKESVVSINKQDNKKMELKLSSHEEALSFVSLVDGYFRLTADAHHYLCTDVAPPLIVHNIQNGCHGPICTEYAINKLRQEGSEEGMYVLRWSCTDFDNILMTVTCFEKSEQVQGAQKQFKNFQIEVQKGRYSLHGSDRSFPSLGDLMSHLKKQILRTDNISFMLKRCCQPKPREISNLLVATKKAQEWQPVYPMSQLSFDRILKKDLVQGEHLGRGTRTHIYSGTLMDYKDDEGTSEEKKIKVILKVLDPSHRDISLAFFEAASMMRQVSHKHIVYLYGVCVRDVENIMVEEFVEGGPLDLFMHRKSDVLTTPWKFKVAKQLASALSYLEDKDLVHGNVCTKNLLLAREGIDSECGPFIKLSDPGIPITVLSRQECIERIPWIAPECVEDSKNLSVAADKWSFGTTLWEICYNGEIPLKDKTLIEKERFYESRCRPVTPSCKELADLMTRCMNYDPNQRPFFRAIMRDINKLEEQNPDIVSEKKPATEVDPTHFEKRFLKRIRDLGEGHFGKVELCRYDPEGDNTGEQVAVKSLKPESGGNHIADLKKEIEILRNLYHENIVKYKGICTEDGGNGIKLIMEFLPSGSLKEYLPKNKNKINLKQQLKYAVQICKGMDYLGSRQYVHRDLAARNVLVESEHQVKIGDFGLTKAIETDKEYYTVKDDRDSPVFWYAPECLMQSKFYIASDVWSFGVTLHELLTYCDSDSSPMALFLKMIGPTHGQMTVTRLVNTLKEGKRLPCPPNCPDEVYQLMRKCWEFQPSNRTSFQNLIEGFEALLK
T7 sequence (O60674 whole entry): as the sequence (O60674 whole entry, change not shown, the tested form may be a part) above

SMILES	microsomal CLint at 1 μM [1, 4] [µL/min/mg]	half-life at 1 μM [1, 5] [min]	microsomal CLint at 1 μM [1, 6] [µL/min/mg]	half-life at 1 μM [1, 7] [min]	microsomal CLint at 1 μM [1, 8] [µL/min/mg]	half-life at 1 μM [1, 9] [min]	IC50 (pSTAT1) [nM]	solubility at 2 h (Kinetic solubility) [µM]	IC50 (TYK2-JH2 domain) [nM]	JAK1/TYK2 selectivity (TYK2-JH2 domain)	fraction unbound at 5 h [2]	IC50 (JAK1-JH2 domain) [nM]	GI50 [3] [nM]	GI50 (Ba/F3-TEL-JAK2 cells) [nM]	GI50 (Ba/F3-TEL-TYK2 cells) [nM]	IC50 (JAK1) [nM]	IC50 (JAK2) [nM]	IC50 (TYK2) [nM]
[2H]C([2H])([2H])NC(=O)c1cnc(NC(=O)C2CC2)cc1Nc1cn(C)c2ncn([C@H](C)C(F)(F)F)c(=O)c12 (single isomer, unassigned) [Example 234A, (R*)-6-(cyclopropanecarboxamido)-N-(methyl-d3)-4-((7-methyl-4-oxo-3-(1,1,1-trifluoropropan-2-yl)-4,7-dihydro-3H-pyrrolo[2,3-d]pyrimidin-5-yl)amino)nicotinamide]	10.9	127	24.3	57	35.3	39.3	495	29.9 (≈ 14.4 µg/mL)	0.521	46.7	0.123	24.4	–	–	–	–	–	–
[2H]C([2H])([2H])NC(=O)c1cnc(Nc2ccc(Cl)cc2)nc1Nc1cccc(-c2ncn(C)n2)c1OC [Example 3, 2-((4-Chlorophenyl)amino)-4-((2-methoxy-3-(1-methyl-1H-1,2,4-triazol-3-yl)phenyl)amino)-N-(methyl-d3) pyrimidine-5-carboxamide]	–	–	–	–	–	–	–	–	–	–	–	–	70.7	2300	5440	–	–	–
CCC(=O)c1cnc(Nc2ccc(F)cc2)nc1Nc1cccc(-c2ncn(C)n2)c1OC [Example 8, 1-(2-((4-Fluorophenyl)amino)-4-((2-methoxy-3-(1-methyl-1H-1,2,4-triazol-3-yl)phenyl)amino)pyrimidin-5-yl)propan-1-one]	–	–	–	–	–	–	–	–	–	–	–	–	157	7470	> 20000	–	–	–
CNC(=O)c1cnc2cc1Nc1cc(cc(-c3ncn(C)n3)c1OC)COCc1cccc(n1)N2 [Example 34, 10-Methoxy-N-methyl-11-(1-methyl-1,2,4-triazol-3-yl)-15-oxa-2,4,8,21-tetrazatetracyclo[15.3.1.13,7.19,13]tricosa-1(21),3(23),4,6,9,11,13(22),17,19-nonaene-6-carboxamide]	–	–	–	–	–	–	–	–	–	–	–	–	125	4350	7180	–	–	–
CNC(=O)c1cnc2nc1Nc1cc(cc(-c3ncn(C)n3)c1OC)COCc1cc(ccc1F)N2 [Example 36, 18-Fluoro-10-methoxy-N-methyl-11-(1-methyl-1H-1,2,4-triazol-3-yl)-15-oxa-2,4,8,23-tetraazatetracyclo[15.3.1.1^{3,7}.1^{9,13}]tricosa-1(20),3,5,7(23),9(22),10,12,17(21),18-nonaene-6-carboxamide]	–	–	–	–	–	–	–	–	–	–	–	–	173	892	1960	–	–	–
CCn1ncc2cnc(Nc3cc(NC(=O)C4CC4)ncc3C(=O)NC)c(OC)c21 [Example 261, 6-(Cyclopropanecarboxamido)-4-((1-ethyl-7-methoxy-1H-pyrazolo[4,3-c]pyridin-6-yl)amino)-N-methylnicotinamide]	–	–	–	–	–	–	–	58 (≈ 23.8 µg/mL)	0.956	47.4	0.085	45.4	113	–	–	> 5000	> 5000	> 5000

Other lines, results leading:

microsomal CLint at 1 μM [1, 4] [µL/min/mg]	half-life at 1 μM [1, 5] [min]	microsomal CLint at 1 μM [1, 6] [µL/min/mg]	half-life at 1 μM [1, 7] [min]	microsomal CLint at 1 μM [1, 8] [µL/min/mg]	half-life at 1 μM [1, 9] [min]	IC50 (pSTAT1) [nM]	solubility at 2 h (Kinetic solubility) [µM]	IC50 (TYK2-JH2 domain) [nM]	JAK1/TYK2 selectivity (TYK2-JH2 domain)	fraction unbound at 5 h [2]	IC50 (JAK1-JH2 domain) [nM]	GI50 [3] [nM]	GI50 (Ba/F3-TEL-JAK2 cells) [nM]	GI50 (Ba/F3-TEL-TYK2 cells) [nM]	IC50 (JAK1) [nM]	IC50 (JAK2) [nM]	IC50 (TYK2) [nM]	SMILES
–	–	–	–	–	–	–	–	–	–	–	–	23.6	> 20000	> 20000	–	–	–	CNC(=O)c1cnc(Nc2ccc(F)cn2)cc1Nc1csc2ccn(C)c(=O)c12 [Example 15, 6-((5-Fluoropyridin-2-yl)amino)-N-methyl-4-((5-methyl-4-oxo-4,5-dihydrothieno[3,2-c]pyridin-3-yl)amino)nicotinamide]
–	–	–	–	–	–	–	–	–	–	–	–	48.4	> 20000	> 20000	> 5000	> 5000	> 5000	CCn1ccc2scc(Nc3cc(Nc4ccc(F)cn4)ncc3C(=O)NC)c2c1=O [Example 18, 4-((5-Ethyl-4-oxo-4,5-dihydrothieno[3,2-c]pyridin-3-yl)amino)-6-((5-fluoropyridin-2-yl)amino)-N-methylnicotinamide]
4.77	290	2.46	563	14.3	96.8	–	–	–	–	–	–	65	> 20000	> 20000	–	–	–	[2H]C([2H])([2H])NC(=O)c1cnc(Nc2ccc(C#N)cc2)nc1Nc1cccc(-c2ncn(C)n2)c1OC [Example 28, 2-((4-Cyanophenyl)amino)-4-((2-methoxy-3-(1-methyl-1H-1,2,4-triazol-3-yl)phenyl)amino)-N-(methyl-d3) pyrimidine-5-carboxamide]
65.8	21.1	95	14.6	109	12.8	–	32.1 (≈ 14.4 µg/mL)	0.33	40.2	0.046	13.3	65.4	–	–	–	–	–	[2H]C([2H])([2H])NC(=O)c1cnc(NC(=O)C2CC2)cc1Nc1ccc2cnn(CC(F)F)c2c1OC [Example 131, 6-(Cyclopropanecarboxamido)-4-((1-(2,2-difluoroethyl)-7-methoxy-1H-indazol-6-yl)amino)-N-(methyl-d3)nicotinamide]
